Laboratory results taken from patent US20240116985A1, “STAPLED PEPTIDES AND METHODS THEREOF” (priority 2020, published 2024).
Like-named read-outs stand apart in the source and are kept apart here.

Experiments:
[1] = target: T1, full-length beta-Catenin (Uniprot ID P35222) (Homo sapiens, UniProt P35222); assay: Fluorescence polarization IC50 (beta-catenin / 5FAM-TCF4 10-53 competition); format: binding; settings: fluorescence polarization
T1 construct: 10 nM full-length beta-Catenin (Uniprot ID P35222)
T1 sequence (P35222 1-781): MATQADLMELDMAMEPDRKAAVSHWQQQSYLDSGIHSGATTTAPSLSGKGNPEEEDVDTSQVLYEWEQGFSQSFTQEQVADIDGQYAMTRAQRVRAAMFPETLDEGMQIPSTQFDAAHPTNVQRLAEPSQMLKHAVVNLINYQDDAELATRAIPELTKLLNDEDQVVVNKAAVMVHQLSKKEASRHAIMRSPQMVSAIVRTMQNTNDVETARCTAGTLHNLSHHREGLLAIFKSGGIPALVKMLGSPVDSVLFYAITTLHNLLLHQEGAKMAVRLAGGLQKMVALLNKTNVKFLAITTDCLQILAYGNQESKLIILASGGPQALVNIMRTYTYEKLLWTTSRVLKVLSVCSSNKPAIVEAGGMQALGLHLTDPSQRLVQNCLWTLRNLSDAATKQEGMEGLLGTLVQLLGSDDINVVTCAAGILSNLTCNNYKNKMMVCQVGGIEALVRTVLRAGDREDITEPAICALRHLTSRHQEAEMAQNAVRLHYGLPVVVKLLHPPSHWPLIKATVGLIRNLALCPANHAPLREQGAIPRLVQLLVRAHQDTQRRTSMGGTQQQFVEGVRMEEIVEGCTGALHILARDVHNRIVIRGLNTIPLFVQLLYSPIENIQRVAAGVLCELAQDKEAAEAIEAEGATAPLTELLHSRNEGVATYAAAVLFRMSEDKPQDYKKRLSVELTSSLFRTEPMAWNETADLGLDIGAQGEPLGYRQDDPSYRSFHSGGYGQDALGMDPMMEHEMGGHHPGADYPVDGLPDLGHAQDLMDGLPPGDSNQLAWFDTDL

[2] = target: T2, beta-catenin/TCF4 engagement (Homo sapiens, UniProt P35222); assay: Nano-BRET target engagement assay (B-cat-Halo & TCF4-Luc in HEK293 cells); format: cell-based; settings: read-out: NanoBRET Abs IC50
T2 construct: expressed in transfected cells; host or cells: HEK293
T2 sequence (P35222 1-781): T1 sequence (P35222 1-781)

CC(=O)N1CCC[C@]12CC=CCCCC1(CCCC=CCCCCCC[C@@](C)(C(=O)N[C@@H](Cc3ccccc3Cl)C(=O)N[C@@H](Cc3csc4ccccc34)C(=O)N[C@@H](CCC(N)=O)C(N)=O)NC(=O)[C@H](CCO)NC(=O)[C@H](Cc3ccccc3)NC(=O)[C@H](C)NC(=O)[C@H](C)NC(=O)[C@H](CC(=O)O)NC(=O)[C@H](CC(=O)O)NC1=O)NC(=O)[C@H](CC(C)(C)C)NC(=O)[C@H](CC(=O)O)NC2=O (stereo partly drawn) [I-1395, Ac-PL3-Asp-Npg-B5-Asp-Asp-Ala-Ala-Phe-Hse-S8-2C1F-BztA-Gln-NH2]
IC50 ([1]; read-out: beta-Catenin FP IC50): 0.033 µM
IC50 ([2]; absolute IC50): 15.4 µM

CC(=O)N1CCC[C@]12CC=CCCCC1(CCCC=CCCCOC(=O)N3CC[C@@](C(=O)N[C@@H](Cc4ccsc4)C(=O)N[C@@H](Cc4csc5ccccc45)C(=O)N[C@@H](CCC(N)=O)C(N)=O)(C3)NC(=O)[C@H](CC(C)C)NC(=O)[C@H](Cc3ccccc3)NC(=O)[C@H](C)NC(=O)[C@H](C)NC(=O)[C@H](CC(=O)O)NC(=O)[C@H](CC(=O)O)NC1=O)NC(=O)[C@H](CC(N)=O)NC(=O)[C@H](CC(=O)O)NC2=O (stereo partly drawn) [I-1517, Ac-PL3-Asp-Asn-B5-Asp-Asp-Ala-Ala-Phe-Leu-PyrS2-3Thi-BztA-Gln-NH2]
IC50 ([1]; read-out: beta-Catenin FP IC50): 0.032 µM
IC50 ([2]; absolute IC50): > 20 µM

CC(=O)N1CCC[C@]12CC=CCCCC1(CCCC=CCCCOC(=O)N3CC[C@@](C(=O)N[C@@H](Cc4ccccc4Cl)C(=O)N[C@@H](Cc4csc5ccccc45)C(=O)N[C@@H](CO)C(N)=O)(C3)NC(=O)[C@H](CC(C)C)NC(=O)[C@H](Cc3ccccc3)NC(=O)[C@H](C)NC(=O)[C@H](CO)NC(=O)[C@H](Cc3cccc(C(=O)O)c3)NC(=O)[C@H](CC(=O)O)NC1=O)NC(=O)[C@H](CC(C)(C)C)NC(=O)[C@H](CC(=O)O)NC2=O (stereo partly drawn) [I-1902, Ac-PL3-Asp-Npg-B5-Asp-3COOHF-Ser-Ala-Phe-Leu-PyrS2-2C1F-BztA-Ser-NH2]
IC50 ([1]; read-out: beta-Catenin FP IC50): 0.028 µM
IC50 [2]: 7.7 µM

CC(=O)N1CCC[C@]12CC=CCCCC1(CCCC=CCCCOC(=O)N3CC[C@@](C(=O)N[C@@H](Cc4ccccc4)C(=O)N[C@@H](Cc4csc5ccccc45)C(=O)N[C@@H](CCC(N)=O)C(N)=O)(C3)NC(=O)[C@H](CC(C)C)NC(=O)[C@H](Cc3ccccc3)NC(=O)[C@H](C)NC(=O)[C@H](CCCCNC(C)C)NC(=O)[C@H](CN(CC(=O)O)CC(F)(F)F)NC(=O)[C@H](CC(=O)O)NC1=O)NC(=O)[C@H](CC1CCCCC1)NC(=O)[C@H](CC(N)=O)NC2=O (stereo partly drawn) [I-2341, Ac-PL3-Asn-Cha-B5-Asp-TfeGA-iPrLys-Ala-Phe-Leu-PyrS2-Phe-BztA-Gln-NH2]
IC50 ([1]; read-out: beta-Catenin FP IC50): 0.042 µM
IC50 ([2]; absolute IC50): > 20 µM

CC(=O)N1CCC[C@]12CC=CCCCC1(CCCC=CCCCOC(=O)N3CC[C@@](C(=O)N[C@@H](Cc4ccccc4Cl)C(=O)N[C@@H](Cc4csc5ccccc45)C(=O)N[C@@H](CCC(N)=O)C(N)=O)(C3)NC(=O)[C@H](CO)NC(=O)[C@H](Cc3ccccc3)NC(=O)[C@H](C)NC(=O)[C@H](CC(C)C)NC(=O)[C@H](CC(=O)O)NC(=O)[C@H](CC(=O)O)NC1=O)NC(=O)[C@H](Cc1ccccc1)NC(=O)[C@H](CC(=O)O)NC2=O (stereo partly drawn) [I-1153, Ac-PL3-Asp-Phe-B5-Asp-Asp-Leu-Ala-Phe-Ser-PyrS2-2C1F-BztA-Gln-NH2]
IC50 ([1]; read-out: beta-Catenin FP IC50): 0.012 µM
IC50 ([2]; absolute IC50): > 20 µM

CC(=O)N1CCC[C@]12CC=CCCCC1(CCCC=CCCCOC(=O)N3CC[C@@](C(=O)N[C@@H](Cc4ccsc4)C(=O)N[C@@H](Cc4csc5ccccc45)C(=O)N[C@@H](CCC(N)=O)C(N)=O)(C3)NC(=O)[C@H](CC(N)=O)NC(=O)[C@H](Cc3ccccc3)NC(=O)[C@H](C)NC(=O)[C@H](C)NC(=O)[C@H](CN(C)CC(=O)O)NC(=O)[C@H](CC(=O)O)NC1=O)NC(=O)[C@H](CC(C)(C)C)NC(=O)[C@H](CC(=O)O)NC2=O (stereo partly drawn) [I-1637, Ac-PL3-Asp-Npg-B5-Asp-[Me]GA-Ala-Ala-Phe-Asn-PyrS2-3Thi-BztA-Gln-NH2]
IC50 ([1]; read-out: beta-Catenin FP IC50): 0.011 µM
IC50 ([2]; absolute IC50): > 20 µM

CC(=O)N1CCC[C@]12CC=CCCCC1(CCCC=CCCCOC(=O)N3CC[C@@](C(=O)N[C@@H](Cc4ccsc4)C(=O)N[C@@H](Cc4ccc(Cl)c(Cl)c4)C(=O)N[C@@H](CCC(N)=O)C(N)=O)(C3)NC(=O)[C@H](CC(C)C)NC(=O)[C@H](Cc3ccccc3)NC(=O)[C@H](C)NC(=O)[C@H](C)NC(=O)[C@H](Cc3cccc(C(=O)O)c3)NC(=O)[C@H](CC(=O)O)NC1=O)NC(=O)[C@H](CC(C)(C)C)NC(=O)[C@H](CC(=O)O)NC2=O (stereo partly drawn) [I-2216, Ac-PL3-Asp-Npg-B5-Asp-3COOHF-Ala-Ala-Phe-Leu-PyrS2-3Thi-34C1F-Gln-NH2]
IC50 ([1]; read-out: beta-Catenin FP IC50): 0.007 µM
IC50 ([2]; absolute IC50): 3.4 µM

CC(=O)N1CCC[C@]12CC=CCCCC1(CCCC=CCCOC(=O)N3CC[C@@](C(=O)N[C@@H](Cc4ccsc4)C(=O)N[C@@H](Cc4csc5ccccc45)C(=O)N[C@@H](CCC(N)=O)C(N)=O)(C3)NC(=O)[C@H](CC(C)C)NC(=O)[C@H](Cc3ccccc3)NC(=O)[C@H](C)NC(=O)[C@H](C)NC(=O)[C@H](CC(=O)O)NC(=O)[C@H](CC(=O)O)NC1=O)NC(=O)[C@H](CC(C)(C)C)NC(=O)[C@H](CC(=O)O)NC2=O (stereo partly drawn) [I-1815, Ac-PL3-Asp-Npg-B5-Asp-Asp-Ala-Ala-Phe-Leu-PyrS1-3Thi-BztA-Gln-NH2]
IC50 ([1]; read-out: beta-Catenin FP IC50): 0.046 µM
IC50 ([2]; absolute IC50): > 20 µM

CC(=O)N1CCC[C@]12CC=CCCCC1(CCCC=CCCCOC(=O)N3CC[C@@](C(=O)N[C@@H](Cc4ccsc4)C(=O)N[C@@H](Cc4csc5ccccc45)C(=O)N[C@@H](CCC(N)=O)C(N)=O)(C3)NC(=O)[C@H](CC(C)C)NC(=O)[C@H](Cc3ccccc3)NC(=O)[C@H](C)NC(=O)[C@H](C)NC(=O)[C@H](CCN(CC(=O)O)C(=O)C3CCN(C)CC3)NC(=O)[C@H](CC(=O)O)NC1=O)NC(=O)[C@H](CC(C)(C)C)NC(=O)[C@H](CC(=O)O)NC2=O (stereo partly drawn) [I-2245, Ac-PL3-Asp-Npg-B5-Asp-[4AcMePip]GAbu-Ala-Ala-Phe-Leu-PyrS2-3Thi-BztA-Gln-NH2]
IC50 ([1]; read-out: beta-Catenin FP IC50): 0.026 µM
IC50 ([2]; absolute IC50): > 20 µM

CC(=O)N1CCC[C@]12CC=CCCCC1(CCCC=CCCCOC(=O)N3CC[C@@](C(=O)N[C@@H](Cc4ccccc4C(F)(F)F)C(=O)N[C@@H](Cc4csc5ccccc45)C(=O)N[C@@H](CCC(=O)N(C)C)C(N)=O)(C3)NC(=O)[C@H](Cc3ccccc3)NC(=O)[C@H](Cc3ccccc3)NC(=O)[C@H](C)NC(=O)[C@H](C)NC(=O)[C@H](Cc3cccc(C(=O)O)c3)NC(=O)[C@H](CC(=O)O)NC1=O)NC(=O)[C@H](CC(C)(C)C)NC(=O)[C@H](CC(=O)O)NC2=O (stereo partly drawn) [I-2534, Ac-PL3-Asp-Npg-B5-Asp-3COOHF-Ala-Ala-Phe-Phe-PyrS2-2F3MeF-BztA-Me2Gln-NH2]
IC50 ([1]; read-out: beta-Catenin FP IC50): 0.021 µM
IC50 ([2]; absolute IC50): 4.4 µM

CC(=O)N1CCC[C@]12CC=CCCCC1(CCCC=CCCCOC(=O)N3CC[C@@](C(=O)N[C@@H](Cc4ccccc4Cl)C(=O)N[C@@H](Cc4csc5ccccc45)C(=O)N[C@@H](CCC(N)=O)C(N)=O)(C3)NC(=O)[C@H](CC(C)C)NC(=O)[C@H](Cc3ccccc3)NC(=O)[C@H](C)NC(=O)[C@H](C)NC(=O)[C@H](Cc3ccc(F)c(C(=O)O)c3)NC(=O)[C@H](CC(=O)O)NC1=O)NC(=O)[C@H](CC(C)(C)C)NC(=O)[C@H](CC(=O)O)NC2=O (stereo partly drawn) [I-2204, Ac-PL3-Asp-Npg-B5-Asp-4F3COOHF-Ala-Ala-Phe-Leu-PyrS2-2C1F-BztA-Gln-NH2]
IC50 ([1]; read-out: beta-Catenin FP IC50): 0.01 µM
IC50 [2]: 3.3 µM

CC(=O)N1CCC[C@]12CC=CCCCC1(CCCC=CCCCCCC[C@@](C)(C(=O)N[C@@H](Cc3ccsc3)C(=O)N[C@@H](Cc3csc4ccccc34)C(=O)N[C@@H](CCC(N)=O)C(N)=O)NC(=O)[C@H](CC(N)=O)NC(=O)[C@H](Cc3ccccc3)NC(=O)[C@H](C)NC(=O)[C@H](C)NC(=O)[C@H](CN(CCCC(F)(F)F)CC(=O)O)NC(=O)[C@H](CC(=O)O)NC1=O)NC(=O)[C@H](CC(C)(C)C)NC(=O)[C@H](CC(=O)O)NC2=O (stereo partly drawn) [I-1455, Ac-PL3-Asp-Npg-B5-Asp-[Tfb]GA-Ala-Ala-Phe-Asn-S8-3Thi-BztA-Gln-NH2]
IC50 ([1]; beta-catenin, read-out: FP EC50): 0.013 µM
IC50 ([1]; read-out: beta-Catenin FP IC50): 0.013 µM
IC50 ([2]; absolute IC50): 23.1 µM

COCCOCCOCCOCCC(=O)NCCCC[C@@H]1NC(=O)[C@H](CCC(N)=O)NC(=O)[C@H](CC(=O)O)NC(=O)C2(CCCC=CCCCOC(=O)N3CC[C@@](C(=O)N[C@@H](Cc4ccccc4)C(=O)N[C@@H](Cc4csc5ccccc45)C(=O)N[C@@H](CC(=O)N4CCOCC4)C(N)=O)(C3)NC(=O)[C@H](CC(C)C)NC(=O)[C@H](Cc3ccccc3)NC(=O)[C@H](C)NC1=O)CCCC=CC[C@]1(CCCN1C(C)=O)C(=O)N[C@@H](CC(N)=O)C(=O)N[C@@H](CC1CCCCC1)C(=O)N2 (stereo partly drawn) [I-2526, Ac-PL3-Asn-Cha-B5-Asp-Gln-[mPEG4]Lys-Ala-Phe-Leu-PyrS2-Phe-BztA-MorphAsn-NH2]
IC50 ([1]; read-out: beta-Catenin FP IC50): 0.224 µM
IC50 ([2]; absolute IC50): > 20 µM
